39 compounds from PubChem BioAssay (NCI) can be followed below.

Several values for one entry are separate records, joined by “and”; a condition that tells them apart may be missing. Identical values can stand only once.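 How tested: cells in 96-well plates exposed to compound for 48 hours at five concentrations. GI50 is the concentration that inhibits growth by half. TGI marks complete inhibition of growth.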 Bounds are passed on as bounds.

The subject of this experiment is MDA-MB-468 breast. Put plainly: NCI-60 cell line screen, 48 h.
As to `CCN(CC)Cc1cc(Nc2c3ccc(Cl)cc3nc3ccc(OC)cc23)ccc1O`, the GI50 is 1.71 µM and the TGI stood at 3.67 µM.

On to `O=C(Nc1ccc(Br)cc1)Nc1nc2ccc([N+](=O)[O-])cc2s1`, for which the GI50 is 1.67 µM and the TGI is 3.29 µM.

As for `Nc1nonc1C(=Nc1ccc(F)c(Cl)c1)NO`, the GI50 was 29.8 µM and the TGI is over 100 µM.

For `Cn1ncc(NC(=O)c2nc(-c3c(F)cccc3F)sc2N)c1N1CC[C@@H](N)[C@H](F)CC1`, the GI50 was 9.7 µM and the TGI came to 26.8 µM.

For the compound `C[n+]1c(-c2ccccc2)c2cc(N)ccc2c2ccccc21`, the GI50 was 0.224 µM and the TGI is 1.53 µM.

On to `CCNC(=O)N1CCc2cc(OC)c(OCCc3ccc(OC)c(N)c3)cc2C1c1ccc(C)cc1C` (stereo not drawn), for which the GI50 was 0.301 µM and the TGI is 15.8 µM.

On to `O=C(Nc1nc(-c2ccc(Cl)cc2)cs1)c1cc(-c2ccc(Br)cc2)nc2ccc(Cl)cc12`, for which the GI50 is 10.9 µM and the TGI turned out to be 78.3 µM.

For `COc1ccc(/C=C/C(=O)c2cc3c(N)c(C(=O)Nc4cccc(Cl)c4C)sc3nc2C)cc1`, the GI50 is 0.176 µM and the TGI is 2.45 µM.

As to `CCOC(=O)N1C/C(=C/c2ccc(Cl)cc2)C(=O)/C(=C/c2ccc(Cl)cc2)C1`, the GI50 was 1.96 µM and the TGI turned out to be 5 µM.

Regarding `CCNCc1c(-c2cccc(OC(F)(F)F)c2)[nH]c2ccc(N3CCCC3)cc2c1=O`, the GI50 was 2.22 µM and the TGI amounted to 5.74 µM.

In the case of `c1ccc([P+](c2ccccc2)(c2ccccc2)c2ccc3c4ccc([P+](c5ccccc5)(c5ccccc5)c5ccccc5)c5cccc(c6cccc2c63)c54)cc1`, the GI50 was 0.838 µM and the TGI turned out to be 7.46 µM.

For `C#CCn1cnc2cnc(Nc3cccc(NC(=O)CCl)c3)nc21`, the GI50 is 8.13 µM and the TGI came to 22.8 µM.

For `COc1cc2c(cc1I)-c1c(cc(OC)c(OC)c1OC)CC[C@@H]2NC(C)=O`, the GI50 was 0.244 µM and the TGI was found to be 0.738 µM.

Regarding `COc1cc2c3c(n(CCCNC4CCC4)c(=O)c2cc1OC)-c1cc2c(cc1C3=O)OCO2`, the GI50 was 1.41 µM and the TGI stood at 3.22 µM.

With `C=C1C(=O)O[C@H]2[C@H]1CC/C(COC(=O)/C=C/C(=O)NCc1ccc(Cn3c(=O)sn(-c4ccccc4)c3=O)cc1)=C\CC[C@@]1(C)O[C@@H]21`, the GI50 was 1.35 µM and the TGI came to 3.69 µM.

For `CC1(C)CN(c2cc(C(F)(F)F)cc3cncn23)CCC12NC(=O)NC2=O` (stereo not drawn), the GI50 is 22.5 µM and the TGI was determined as 82.9 µM.

In the case of `N#Cc1c(-c2ccccc2)cc(-c2ccccc2)n(CCCC(=O)NO)c1=O`, the GI50 is 1.46 µM and the TGI was 4.56 µM.

For the compound `CC(=O)/C=C/c1ccc(OCc2ccc(C(C)(C)C)cc2)cc1`, the GI50 was 33.9 µM and the TGI was over 1000 µM.

Regarding `COc1ccc(-c2cc(-c3ccccc3)nc(SCCCC(=O)NO)n2)cc1OC`, the GI50 is 1.44 µM and the TGI stood at 3.62 µM.

As for `O=c1c2cc(F)ccc2sc2c(Nc3ccncc3)nc3ccccc3c12`, the GI50 was 1.78 µM and the TGI was determined as 3.5 µM.

For `Clc1ccc2c(c1)C(Br)c1cc(Cl)cc(Cl)c1-2` (stereo not drawn), the GI50 is 35.6 µM and the TGI is over 100 µM.

`CC(C)=CCC/C(C)=C/CC/C(C)=C/CC/C(C)=C/CSC[C@H](NC(=O)CCCCCN1CCN(C)CC1)C(=O)NC1CCCCC1`: the GI50 was 1.97 µM and the TGI stood at 4.49 µM.

On to `O=C1[C@@H]2Cc3c([nH]c4ccccc34)[C@H](c3c(Cl)cccc3Cl)N2C(=O)CN1C1CCN(Cc2ccccc2)CC1`, for which the GI50 was 2.09 µM and the TGI was 4.27 µM.

Consider `CCO/C=N/C1=C(C#N)C(c2ccc(OC)cc2)c2sc3c(F)cccc3c2O1` (stereo not drawn), for which the GI50 is 2.41 µM and the TGI came out at 19.4 µM.

Regarding `C#C[C@]1(O)CC[C@H]2[C@@H]3CC=C4c5sc(Nc6nc(C)cc(OC)n6)nc5CC[C@]4(C)[C@H]3CC[C@@]21C`, the GI50 was 4.47 µM and the TGI is over 100 µM.

Turning to `O=C(NNc1nc2cc(F)c(F)cc2n2cccc12)c1ccncn1`, the GI50 is 0.241 µM and the TGI came out at 1.58 µM.

As for `CCn1c(=O)c(Oc2ccc(F)cc2F)cc2cnc(NC3CCOCC3)nc21`, the GI50 is over 25 µM and the TGI was over 25 µM.

Turning to `COc1cc2ccnc(C=O)c2cc1OC`, the GI50 was 31.9 µM and the TGI was over 100 µM.

In the case of `COc1ccc(CC(C)=C(c2ccc(OCCN3CCCCCC3)cc2)c2ccc(OCCN3CCCCCC3)cc2)cc1`, the GI50 was 0.176 µM and the TGI turned out to be 0.667 µM.

In the case of `C[C@@]1(C(=O)Nc2ccc(F)nc2)CCCN1c1nc(Nc2cc(C3CC3)[nH]n2)c2cccn2n1`, the GI50 is 0.25 µM and 0.526 µM; the TGI came out at 4.37 µM.

With `COc1cc(-c2ccc(-c3ccc(C(=N)N)cc3)s2)cc(OC)c1OC`, the GI50 is 1.64 µM and the TGI came to 3.15 µM.

As to `Nc1nc(N)c(N=Nc2ccccc2)c(-c2ccccc2)n1`, the GI50 is 1.06 µM and the TGI is 11.4 µM.

Take `CC1(C)C(N(O)C(=O)Nc2ccc(Cl)cc2)N(c2ccc(Cl)cc2)C(=O)N1CC(=O)N/N=C/C=C/c1ccc([N+](=O)[O-])o1` (stereo not drawn): the GI50 was 1.62 µM and the TGI is 5.35 µM.

`COC(=O)[C@@H](C)C[C@H](Cc1ccc2ccccc2c1)NC(=O)c1csc([C@@H](C[C@H](C(C)C)N(C)C(=O)[C@@H](NC(=O)[C@H]2CCCCN2C)C(C)C)OC(C)=O)n1`: the GI50 was 0.00683 µM and the TGI was over 25 µM.

With `COc1cc2c(cc1OCCCCCn1c(-c3ccc(OCc4ccccc4)cc3)nc3cc(N4CCOCC4)ccc31)N=C[C@@H]1CCCN1C2=O`, the GI50 was 0.936 µM and the TGI turned out to be 5.1 µM.

Consider `O=C(c1ccc(Cl)cc1)c1no[n+]([O-])c1C(=O)c1ccc(Cl)cc1`, for which the GI50 is 9.22 µM and the TGI came to 27.7 µM.

`c1ccc2cc(C[n+]3ccn(CCCCCCCCCCCCn4cc[n+](Cc5ccc6ccccc6c5)c4)c3)ccc2c1`: the GI50 was 0.494 µM and the TGI turned out to be 1.28 µM.

With `CNC(=O)NCC1OC(n2cnc3c(NC(=O)Nc4ccccc4)ncnc32)C(O[Si](C)(C)C(C)(C)C)C1CC(=O)N(C)OC` (stereo not drawn), the GI50 is 1.87 µM and the TGI is 6.38 µM.

As to `COc1cc(/C=C/c2cc(/C=C/c3ccc(O)c(OC)c3)n(-c3c(Cl)cccc3Cl)c(=O)n2)ccc1O`, the GI50 is 2.76 µM and the TGI came out at 7.18 µM.
